The record followed here is the NIST ThermoML archive (doi:10.1016/j.jct.2016.01.003).

A short description of data set [1]: Molar enthalpy of transition or fusion. The following applies: Crystal; DSC.
For data set [2] the following is noted: Crystal.

Each structure is given as a SMILES string. ± gives the expanded uncertainty stated by the source.

On to `O=C1c2cccc(Cl)c2C(=O)N1c1ccccc1` [3-chloro-N-phenylphthalimide], for which the “Molar enthalpy of transition or fusion” value in data set [1] was determined as 29.1 ± 0.99 kJ/mol. Moreover, the mass density in data set [2] (298.15 K, 101.33 kPa, flotation method) is recorded as 1397 ± 2 kg/m3. In addition, in data set [2] (DTA), the Normal melting temperature was found to be 192.90 ± 1.1 °C.

Broadly, the mass density is mass per unit of volume.
